Assay results reported in paper PMC5893597, “Structural mechanism for nucleotide-driven remodeling of the AAA-ATPase unfoldase in the activated human 26S proteasome” (Nature Communications, 2018).

Test system: T1, human 26S proteasome AAA-ATPase heterohexamer (Rpt1-6) in the holoenzyme
T1 construct: gene PSMC2; endogenous subunits in doubly capped 26S holoenzyme (28-subunit CP, 19-subunit RPs)
Experiment: cryo-EM structure
Type: binding
Conditions: 1 mM ATP-γ-S, 1 mM MgCl2, pH 7.5; Walker A nucleotide sites of Rpt subunits

## Nc1ncnc2c1ncn2[C@@H]1O[C@H](COP(=O)(O)OP(=O)(O)OP(O)(O)=S)[C@@H](O)[C@H]1O [ATP-γ-S]
  cryo-EM structure: ATP-γ-S was modeled into the nucleotide densities of four Rpt subunits in each state
